Legend:
[1] = target: T1, Factor B enzyme (recombinant human complement factor B protein, as CVF:Bb complex) (Homo sapiens, UniProt P00751); settings: biological evaluation in Application No. WO2022143845; cited from earlier work
T1 construct: host or cells: HD CHO-S cells, pcDNA3.4 vector

[2] = DVS (dynamic vapor sorption) hygroscopicity testing; assay type: physicochemical
Procedure: DVS refers to dynamic vapor sorption: Surface Measurement Systems instrinsic was adopted; the humidity started at 50%, the humidity range investigated was 0%-95%, and the humidity was increased in increments of 10%; the criterion was that each gradient mass change dM/dT is less than 0.002%, TMAX 360 min, two cycles.

[3] = Long-term/accelerated stability (sealed, 25° C./60% RH and 40° C./75% RH)
[4] = Influencing factor stability (open flasks, light, high temperature, high humidity, 30 days)
[5] = 25° C./60% RH and 40° C./75% RH, 6 months
[6] = Light exposure (4500 Lux), 5 days, open flask
[7] = Light exposure (4500 Lux), 10 days, open flask
[8] = Light exposure (4500 Lux), 30 days, open flask

T1 sequence (P00751 260-764 limits assumed): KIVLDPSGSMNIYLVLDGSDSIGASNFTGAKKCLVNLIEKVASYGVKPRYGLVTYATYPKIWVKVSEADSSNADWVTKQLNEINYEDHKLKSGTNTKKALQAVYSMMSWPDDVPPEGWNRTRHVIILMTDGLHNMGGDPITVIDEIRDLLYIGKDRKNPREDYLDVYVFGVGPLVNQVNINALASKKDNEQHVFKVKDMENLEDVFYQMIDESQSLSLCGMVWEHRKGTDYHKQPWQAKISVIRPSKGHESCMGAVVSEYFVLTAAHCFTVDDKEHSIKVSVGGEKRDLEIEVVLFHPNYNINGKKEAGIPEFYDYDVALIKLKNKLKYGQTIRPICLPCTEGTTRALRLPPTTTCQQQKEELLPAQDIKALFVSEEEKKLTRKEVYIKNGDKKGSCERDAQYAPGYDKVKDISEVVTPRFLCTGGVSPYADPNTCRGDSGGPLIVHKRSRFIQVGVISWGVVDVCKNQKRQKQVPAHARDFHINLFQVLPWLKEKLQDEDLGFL
T1 sequence (Q91132 23-649 partner limits assumed): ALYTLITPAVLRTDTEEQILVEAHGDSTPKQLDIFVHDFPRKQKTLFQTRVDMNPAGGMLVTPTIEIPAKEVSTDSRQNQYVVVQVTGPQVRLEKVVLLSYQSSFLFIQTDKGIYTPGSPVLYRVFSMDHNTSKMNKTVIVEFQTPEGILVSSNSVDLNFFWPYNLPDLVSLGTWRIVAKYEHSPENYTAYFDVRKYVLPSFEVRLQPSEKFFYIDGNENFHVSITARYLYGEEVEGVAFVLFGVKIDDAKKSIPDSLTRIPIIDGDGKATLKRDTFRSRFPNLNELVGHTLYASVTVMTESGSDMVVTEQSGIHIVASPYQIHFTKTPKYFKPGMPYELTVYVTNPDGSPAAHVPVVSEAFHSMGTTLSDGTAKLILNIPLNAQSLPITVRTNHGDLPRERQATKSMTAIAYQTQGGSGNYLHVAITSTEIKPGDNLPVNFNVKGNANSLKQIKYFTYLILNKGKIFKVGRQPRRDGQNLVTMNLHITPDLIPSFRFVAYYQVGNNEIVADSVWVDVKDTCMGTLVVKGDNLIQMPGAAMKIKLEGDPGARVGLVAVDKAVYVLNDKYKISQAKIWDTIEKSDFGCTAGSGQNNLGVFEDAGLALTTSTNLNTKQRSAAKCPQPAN
T1 sequence (Q91132 733-984 partner limits assumed): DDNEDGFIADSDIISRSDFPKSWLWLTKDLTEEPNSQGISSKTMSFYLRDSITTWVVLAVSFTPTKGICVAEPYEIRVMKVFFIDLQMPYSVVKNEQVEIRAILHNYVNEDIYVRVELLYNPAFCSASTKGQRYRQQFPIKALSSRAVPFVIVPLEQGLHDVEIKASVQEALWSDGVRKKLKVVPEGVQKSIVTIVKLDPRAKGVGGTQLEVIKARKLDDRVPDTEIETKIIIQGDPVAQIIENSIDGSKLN
T1 sequence (Q91132 1264-1642 partner limits assumed): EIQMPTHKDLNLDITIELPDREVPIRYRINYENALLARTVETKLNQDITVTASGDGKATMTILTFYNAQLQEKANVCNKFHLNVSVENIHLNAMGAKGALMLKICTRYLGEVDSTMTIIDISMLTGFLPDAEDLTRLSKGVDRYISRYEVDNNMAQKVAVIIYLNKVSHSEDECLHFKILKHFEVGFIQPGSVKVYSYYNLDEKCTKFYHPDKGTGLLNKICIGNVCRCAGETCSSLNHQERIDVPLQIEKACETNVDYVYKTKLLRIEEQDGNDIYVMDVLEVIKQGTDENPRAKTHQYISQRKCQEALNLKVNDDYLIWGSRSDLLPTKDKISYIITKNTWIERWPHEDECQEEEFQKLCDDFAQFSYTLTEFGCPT

In the case of `CCO[C@H]1C[C@H]2CC[C@@](c3ccc(C(=O)O)cc3)(C1)N2Cc1c(OC)cc(C)c2[nH]ccc12` [compound I, 4-((1S,3S,5R)-3-ethoxy-8-((5-methoxy-7-methyl-1H-indol-4-yl)methyl)-8-azabicyclo[3.2.1]octan-1-yl)benzoic acid], the “inhibitory effect on the enzyme activity of Factor B” value [1] is listed as “relatively good inhibitory effect”.

With `CCO[C@H]1C[C@H]2CC[C@@](c3ccc(C(=O)O)cc3)(C1)N2Cc1c(OC)cc(C)c2[nH]ccc12.Cl` [crystal form III of the hydrochloride, 4-((1S,3S,5R)-3-ethoxy-8-((5-methoxy-7-methyl-1H-indol-4-yl)methyl)-8-azabicyclo[3.2.1]octan-1-yl)benzoic acid-hydrochloride] the “hygroscopic weight gain under normal storage conditions” value ([2]; DVS, 25° C. and 60% RH) was “about 2.57%”, the “hygroscopic weight gain under accelerated experimental conditions” value ([2]; DVS, 70% RH) was “about 2.960%” and the “hygroscopic weight gain under extreme conditions” value ([2]; DVS, 90% RH) was “about 4.5700%”. The “crystal form re-identification after DVS testing” value ([2]; XRPD after DVS) was “did not change”, the “Purity %” value ([3]; 25° C., 60% RH, sealed, 1 month) was 99.6% and the “Purity %” value ([3]; 25° C., 60% RH, sealed, 2 months) was 99.6%. The “Purity %” value ([3]; 25° C., 60% RH, sealed, 3 months) was 99.6%, the “Purity %” value ([3]; 25° C., 60% RH, sealed, 6 months) was 99.6% and the chemical stability [3, 5] was “good”. For the same compound, the physical stability [3, 5] was “good”, the “Purity %” value ([3]; 40° C., 75% RH, sealed, 1 month) was 99.6% and the “Purity %” value ([3]; 40° C., 75% RH, sealed, 2 months) was 99.5%. For the same compound, the “Purity %” value ([3]; 40° C., 75% RH, sealed, 3 months) was 99.5%, the “Purity %” value ([3]; 40° C., 75% RH, sealed, 6 months) was 99.4% and the “Purity %” value ([3]; Initial) was 99.6%. The Color and state ([4]; 40° C., 5 days, open flask) was “White solid”, the Purity % ([4]; 40° C., 5 days, open flask) was 99.6% and the Salt form ([4]; 40° C., 5 days, open flask) was “No change”. The Color and state ([4]; 40° C., 10 days, open flask) was “White solid”, the Purity % ([4]; 40° C., 10 days, open flask) was 99.4% and the Salt form ([4]; 40° C., 10 days, open flask) was “No change”. For the same compound, the Color and state ([4]; 40° C., 30 days, open flask) was “White solid”, the Purity % ([4]; 40° C., 30 days, open flask) was 99.0% and the Salt form ([4]; 40° C., 30 days, open flask) was “No change”. The Color and state ([4]; 60° C., 5 days, open flask) was “White solid”, the Purity % ([4]; 60° C., 5 days, open flask) was 99.3% and the Salt form ([4]; 60° C., 5 days, open flask) was “No change”. For the same compound, the Color and state ([4]; 60° C., 10 days, open flask) was “White solid”, the Purity % ([4]; 60° C., 10 days, open flask) was 99.1% and the Salt form ([4]; 60° C., 10 days, open flask) was “No change”. The Color and state ([4]; 60° C., 30 days, open flask) was “White solid”, the Purity % ([4]; 60° C., 30 days, open flask) was 98.5% and the Salt form ([4]; 60° C., 30 days, open flask) was “No change”. The Color and state ([4]; 75% RH, 5 days, open flask) was “White solid”, the Purity % ([4]; 75% RH, 5 days, open flask) was 99.6% and the Salt form ([4]; 75% RH, 5 days, open flask) was “No change”. The Color and state ([4]; 75% RH, 10 days, open flask) was “White solid”, the Purity % ([4]; 75% RH, 10 days, open flask) was 99.6% and the Salt form ([4]; 75% RH, 10 days, open flask) was “No change”. The Color and state ([4]; 75% RH, 30 days, open flask) was “White solid”, the Salt form ([4]; 75% RH, 30 days, open flask) was “No change” and the Color and state ([4]; 92.5% RH, 5 days, open flask) was “White solid”. The Salt form ([4]; 92.5% RH, 5 days, open flask) was “No change”, the Color and state ([4]; 92.5% RH, 10 days, open flask) was “White solid” and the Salt form ([4]; 92.5% RH, 10 days, open flask) was “No change”. The Color and state ([4]; 92.5% RH, 30 days, open flask) was “White solid”, the Salt form ([4]; 92.5% RH, 30 days, open flask) was “No change” and the Color and state ([4]; Initial, 0 days) was “White solid”. For the same compound, the Salt form ([4]; Initial, 0 days) was “Crystal form”, the Color and state [4, 6] was “White solid” and the Purity % [4, 6] was 99.2%. The Salt form [4, 6] was “No change”, the Color and state [4, 7] was “White solid” and the Purity % [4, 7] was 98.4%. The Salt form [4, 7] was “No change”, the Color and state [4, 8] was “White solid” and the Purity % [4, 8] was 96.2%. The Salt form [4, 8] was “No change”, the “chemical stability under high humidity conditions” value ([4]; high humidity conditions only, 30 days) was “good” and the physical stability ([4]; light exposure (4500 Lux), 40° C. and 60° C., high humidity RH 75% and 92.5%, 30 days) was “good”.

From patent US20250382287A1, “PHARMACEUTICALLY ACCEPTABLE SALT AND CRYSTAL FORM OF NITROGEN-CONTAINING BRIDGE HETEROCYCLIC DERIVATIVE, AND METHOD FOR PREPARING SAME” (JIANGSU HENGRUI PHARMACEUTICALS CO., LTD., priority 2022, published 2025)
